Paper PMC6121260, “Sulfated Metabolites of Flavonolignans and 2,3-Dehydroflavonolignans: Preparation and Properties” (International Journal of Molecular Sciences, 2018)
Read-outs that look alike come from different tables or passages of the source. Marks after values point to notes of the source that are not given here.

What was measured:
[1] = set-up: method as in PMID 26260337, PMID 16919302; conditions: read-out: DPPH scavenging IC50; cited from earlier work
[2] = ABTS+ cation radical scavenging; format: biochemical; conditions: vitamin C equivalents, mean ± standard error
Procedure: (§1) N,N-dimethyl-p-phenylenediamine (DMPD) and 2,2′-azino-bis(3-ethylbenzothiazolin-6-sulfonic acid (ABTS) cation radical scavenging and ferric reducing antioxidant power (FRAP) were measured using kits from Bioquochem (Llanera-Asturias, Spain). Antiradical activity by 2,2-diphenyl-1-picrylhydrazyl radical scavenging assay, reducing capacity using Folin–Ciocalteau reagent (FCR), and anti-lipoperoxidant activity using inhibition of lipid peroxidation of rat liver microsomes induced by tert-butyl hydroperoxide were determined as described previously with modifications described in detail in our previous research.

[3] = Ferric reducing antioxidant power (FRAP); format: biochemical; conditions: equivalents of Fe^2+, mean ± standard error
Procedure: as §1

[4] = Log p, octan-1-ol / phosphate buffer partition; format: physicochemical; conditions: octan-1-ol / 6.6 mM phosphate buffer pH 7.4, 25 °C
Procedure: The hydrophobicity of the compounds was determined by measuring their partition coefficient P in a mixture of two immiscible phases—octan-1-ol and 6.6 mM phosphate buffer pH 7.4. Stock solutions (0.5 mM) were prepared in octan-1-ol (parent compounds) and in the buffer (sulfated compounds). The stock solutions (150 µL) were mixed with 150 µL of the immiscible phase in microcentrifuge tubes (1.5 mL); shaken for 2 h (750 rpm, 25 °C); and after incubation, the phases were separated. Water phases were diluted 1:1 with the mobile phase (acetonitrile/deionized water/HCO2H, 5:95:0.1; v/v) and analyzed by HPLC using the gradient G3 (see Section 3.1.3). Octan-1-ol phases were evaporated in the stream of air (70 °C), then dissolved in 10 µL of DMSO, and mixed with 90 µL of mobile phase and analyzed by HPLC. The log p values were calculated from the respective peak heights (h) using the formula log p = log(hoctanol/hbuffer). For comparison, log p values were calculated using the Molinspiration property engine v2016.10 (http://www.molinspiration.com, Molinspiration Cheminformatics, Slovensky Grob, Slovakia) (access on 26th October 2017).

[5] = Folin–Ciocalteu reagent (FCR) reduction; format: biochemical; conditions: Folin–Ciocalteau reagent reduction, gallic acid equivalents; mean ± standard error
Procedure: as §1

[6] = DMPD+ cation radical scavenging; format: biochemical; conditions: vitamin C equivalents, mean ± standard error
Procedure: as §1

[7] = target: T1, aryl sulfotransferase from rat liver (AST IV) (Rattus norvegicus, UniProt P17988); assay: Substrate specificity of AST IV (whole E. coli cells, p-NPS donor); format: in vitro ADME; set-up: key: +: isolated sulfated product(s) and/or release of p-nitrophenol (p-NP); –: no formation of p-NP and/or isolated sulfated products; conditions: whole E. coli cells expressing AST IV, 37 °C, 72 h
T1 construct: made in house; host or cells: E. coli BL21 (DE3) Gold (whole cells used as catalyst)
Procedure: The plasmid bearing astIV gene was kindly provided by Prof. L. Elling, RWTH Aachen, Germany. The enzyme was expressed in E. coli BL21 (DE3) Gold as described, with modifications reported in our previous work. Whole E. coli cells producing the enzyme, freshly prepared according to the literature, were employed in the biotransformation experiments as a catalyst.
Silybin, silybin A, silybin B, silychristin, and silydianin (separately, each 50 mg, 0.104 mmol) and p-nitrophenyl sulfate (p-NPS, 35 mg, 0.136 mmol; Sigma-Aldrich, St. Louis, MO, USA) were dissolved in 3 mL DMSO, and 2 g (wet based) of whole cells expressing AST IV resuspended in K-phosphate buffer (pH 7.5, 17 mL) were added. The reaction mixture was incubated on a rotary shaker at 37 °C for 24 h. The cells were then removed by centrifugation (30 min, 5000 rpm, 5404 R Eppendorf, Germany), a new portion of fresh cells (2 g in 15 mL, wet based, resuspended in K-phosphate buffer) were added to the supernatant and incubated for 24 h. This step was repeated once more with a total reaction time of 72 h. The reaction was monitored by HPLC and after 72 h, the reaction mixtures, containing the sulfated product(s), were purified by preparative HPLC employing Asahipak GS-310 20F (Shodex, Tokyo, Japan) column with isocratic elution with 100% methanol. The fraction containing the putative sulfated product(s) was evaporated, dissolved in 1 mL of 80% methanol, and loaded onto a Sephadex LH-20 column (15 g dry weight, 12 mm i.d.) packed and eluted with 80% methanol. Only one sulfated product was obtained; silybin B 20-O-sulfate (14.5 mg, 0.03 mmol, yield 25%), whose identity was confirmed by comparison with previously published data.

DPPH radical scavenging = format: biochemical; conditions: mean ± standard error
Procedure: as §1

[8] = Inhibition of lipoperoxidation (Lpx) induced by tert-butyl hydroperoxide; format: biochemical; conditions: rat liver microsomal membranes, mean ± standard error
Procedure: as §1

[9] = Stability of the isolated sulfate; format: physicochemical; conditions: after isolation
Procedure: It quickly decomposed into a mixture of at least five products and, therefore, it was not studied further.
Silydianin (150 mg, 0.311 mmol) was sulfated using the same procedure as for silybin. Silydianin-19-O-sulfate was obtained as a yellowish solid (101 mg, 58.3%). Its structure was determined by HRMS (m/z calcd. for C25H21O13 S 561.07083, found 561.07141) and NMR (see Figure S13 and Table S5, Supplementary Material).

T1 sequence (P17988 whole entry): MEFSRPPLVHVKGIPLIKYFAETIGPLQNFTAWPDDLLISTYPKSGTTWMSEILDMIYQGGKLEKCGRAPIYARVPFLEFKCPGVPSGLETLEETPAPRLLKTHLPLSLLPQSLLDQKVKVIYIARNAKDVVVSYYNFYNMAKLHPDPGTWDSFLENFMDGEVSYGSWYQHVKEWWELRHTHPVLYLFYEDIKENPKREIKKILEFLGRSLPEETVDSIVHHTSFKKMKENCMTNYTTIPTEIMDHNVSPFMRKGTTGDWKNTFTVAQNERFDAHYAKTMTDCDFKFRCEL

logP at 2 h [4] | IC50 (DPPH radical scavenging) | IC50 [8] | Stability of the compound [9] | Stability of the compound ([9]; listed as silydianin-19-O-sulfate) | SMILES | IC50 [1] | ABTS^+ [CE] [2] | FRAP [Fe^2+] [3] | FCR [GAE] [5] | DMPD^+ [CE] [6] | Formation of p-NP [7]
– | – | – | – | – | O=C1c2c(O)cc(O)cc2OC(c2ccc(O)c(O)c2)C1O (stereo not shown) [taxifolin] | 6 to 10 µM | – | – | – | – | –
1.52 | 490 ± 21 µM | 48.6 ± 0.4 µM | – | – | COc1cc([C@H]2Oc3cc([C@H]4Oc5cc(O)cc(O)c5C(=O)[C@@H]4O)ccc3O[C@@H]2CO)ccc1O [Silybin A, silybin A, reference compound] | – | 1.01 ± 0.03 ^i CE | 0.06 ± 0.00 Fe^2+ | 0.33 ± 0.02 ^k GAE | 0.96 ± 0.01 ^n CE | – ^c
– | – | – | unstable | extremely unstable | COc1cc(C2C3C=C(C4Oc5cc(O)cc(O)c5C(=O)C4O)C4C2COC4(O)C3=O)ccc1OS(=O)(=O)O (stereo not shown) [Silydianin-19-O-sulfate] | – | – | – | – | – | –
2.17 | 546 ± 17 µM | 68.6 ± 2.2 µM | – | – | COc1cc([C@@H]2Oc3cc([C@H]4Oc5cc(O)cc(O)c5C(=O)[C@@H]4O)ccc3O[C@H]2CO)ccc1O [Silybin B, silybin B, reference compound] | – | 0.97 ± 0.05 ^i CE | 0.04 ± 0.00 ^q Fe^2+ | 0.36 ± 0.03 ^k GAE | 1.09 ± 0.01 ^n CE | + ^a
